The numbers were not newly measured in patent US20260284079A1, “LIPID PRODRUGS OF ALLOPR[…] USES THEREOF” (Seaport Therapeutics, Inc., priority 2023, published 2026), which cites them from elsewhere.

One data set deals with salivary cortisol levels. The conditions noted are these: literature; cited from earlier work.
The conditions of data set [1]: due to extensive first-pass metabolism; cited from earlier work.

For `CCNC1=Nc2ccc(Cl)cc2C(C)(c2ccccc2)O1` (centres unmarked) [Etifoxine], the “blunting of increase in salivary cortisol levels following a TSST” value with salivary cortisol levels is “does not blunt an increase in salivary cortisol levels”.
For `CC(=O)[C@H]1CC[C@H]2[C@@H]3CC[C@H]4C[C@H](O)CC[C@]4(C)[C@H]3CC[C@]12C` [allopregnanolone], the oral bioavailability result in data set [1] is given as “less than 5%”.
